Experimental data: BindingDB's records for patent US20250177582 (Philochem, 2025)

Assays:
Prolyl endopeptidase FAP [1] = molecular target: T1, Prolyl endopeptidase FAP (Homo sapiens, UniProt Q12884); test: Inhibition Assay
T1 sequence (Q12884 whole entry): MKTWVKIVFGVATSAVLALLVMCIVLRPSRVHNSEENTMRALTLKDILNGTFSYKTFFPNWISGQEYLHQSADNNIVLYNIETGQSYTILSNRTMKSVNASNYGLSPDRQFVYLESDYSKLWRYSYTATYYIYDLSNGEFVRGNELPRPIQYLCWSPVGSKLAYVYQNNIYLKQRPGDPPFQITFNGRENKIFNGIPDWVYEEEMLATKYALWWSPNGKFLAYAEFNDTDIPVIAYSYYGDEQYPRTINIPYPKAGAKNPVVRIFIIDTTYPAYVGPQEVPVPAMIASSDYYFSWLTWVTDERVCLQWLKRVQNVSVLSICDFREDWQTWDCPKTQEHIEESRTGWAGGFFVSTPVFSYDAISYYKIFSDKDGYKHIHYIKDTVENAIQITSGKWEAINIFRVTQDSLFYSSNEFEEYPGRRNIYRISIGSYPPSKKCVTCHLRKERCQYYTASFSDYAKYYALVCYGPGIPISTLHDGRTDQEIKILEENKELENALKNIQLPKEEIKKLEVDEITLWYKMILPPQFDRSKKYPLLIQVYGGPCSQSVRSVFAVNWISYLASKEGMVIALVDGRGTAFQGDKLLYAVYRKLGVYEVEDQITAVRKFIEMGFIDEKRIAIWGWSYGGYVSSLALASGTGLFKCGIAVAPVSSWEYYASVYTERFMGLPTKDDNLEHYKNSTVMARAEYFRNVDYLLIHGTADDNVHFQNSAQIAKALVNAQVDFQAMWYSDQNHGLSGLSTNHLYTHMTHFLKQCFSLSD
Description: (§1) Inhibition assay of FAP. The compounds were precisely weighed (range between […]) on a micro-scale (HuberLab, Sartorius QUINTIX35-1S) and dissolved in DMSO to prepare stock solutions at 1 mM. Stock solutions were further diluted with FAP activation buffer (50 mM Tris, 100 mM NaCl, 1 mM EDTA, pH=7.4) to a final DMSO concentration of 10% v/v. 10 μL of each inhibitor were serially diluted in a 384 well plate (grenier-bio one, PS, F-bottom, Black, non-binding) with 10 μL of 10% DMSO FAP buffer (1:1 dilution). FAP (human and murine) was diluted to the desired concentration with FAP activation buffer and added to the serial dilution of inhibitor (10 μL for each well). Each protein-inhibitor solution was incubated for 30 minutes at room temperature. Each measurement was performed with an enzyme concentration (FAP) lower than the expected IC50. A 60 μM solution of substrate (Z-Gly-Pro-AMC) in FAP activation buffer (<1% DMSO) was added to the plate (10 μL for each well). The reaction was incubated from 1 minute to 48 hours at room temperature (22° C.-25° C.). The emission was read at 465 nm (excitation wavelength 360 nm) for 40 μs by Tecan Spark (s.n. 1808004082). […]

Prolyl endopeptidase FAP [2] = molecular target: T2, Prolyl endopeptidase FAP (Mus musculus, UniProt P97321); test: Inhibition Assay
T2 sequence (P97321 whole entry): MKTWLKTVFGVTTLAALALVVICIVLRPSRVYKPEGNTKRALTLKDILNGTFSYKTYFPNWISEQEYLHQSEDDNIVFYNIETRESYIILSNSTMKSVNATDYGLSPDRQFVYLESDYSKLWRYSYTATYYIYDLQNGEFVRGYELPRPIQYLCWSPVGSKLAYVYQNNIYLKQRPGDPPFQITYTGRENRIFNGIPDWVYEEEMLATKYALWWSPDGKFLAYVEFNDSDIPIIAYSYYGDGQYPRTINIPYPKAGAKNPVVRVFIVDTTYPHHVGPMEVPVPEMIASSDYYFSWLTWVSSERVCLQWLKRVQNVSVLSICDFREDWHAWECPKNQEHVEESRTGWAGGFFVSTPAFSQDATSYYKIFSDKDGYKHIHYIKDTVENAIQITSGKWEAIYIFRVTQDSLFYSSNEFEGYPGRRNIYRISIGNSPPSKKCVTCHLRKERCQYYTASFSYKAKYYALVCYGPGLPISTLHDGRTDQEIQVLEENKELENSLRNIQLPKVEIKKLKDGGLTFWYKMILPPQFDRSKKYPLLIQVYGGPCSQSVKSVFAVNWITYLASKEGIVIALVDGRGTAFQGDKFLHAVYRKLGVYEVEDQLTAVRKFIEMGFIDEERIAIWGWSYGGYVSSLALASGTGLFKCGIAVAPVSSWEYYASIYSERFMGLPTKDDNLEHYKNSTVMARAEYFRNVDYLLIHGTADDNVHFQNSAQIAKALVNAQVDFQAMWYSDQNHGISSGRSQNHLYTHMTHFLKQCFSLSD
Description: as §1

`C#CC[C@H](NC(=O)[C@H](CCCNC(=N)N(C)C)NC(=O)c1coc(CNC(=O)CCC(=O)N2CC(F)(F)C[C@H]2C#N)c1)C(=O)N[C@@H](CCCCN)C(=O)O` [US20250177582, Compound 2] gave an IC50 (Prolyl endopeptidase FAP [1]) of 44.1 nM and an IC50 (Prolyl endopeptidase FAP [2]) of 29.2 nM.
